In one data set the test system is U2OS. Briefly: MTS antiproliferative assay U2OS. To be noted: Homo sapiens, 72 h of incubation. The data set is classed as cell-based. An excerpt: (§1) The cell lines used were acquired from the American Type Culture Collection (ATCC), CCRF-CEM (T lymphoblastic leukemia), K562 ([…]), U2OS (osteosarcoma), HCT116 (colon carcinoma), A549 (lung adenocarcinoma) and HCT116p53−/− (HCT116 cell line mutated in p53) Horizon Discovery Ltd., (Waterbeach, Cambridge, United Kingdom).
(§2) In our laboratory, IMTM, we generated the daunorubicin-resistant subline of CCRF-CEM cells (CEM-DNR bulk) and paclitaxel-resistant subline K562-TAX, as described previously. […] Both ABC transporters are involved in drug resistance. As a control, human fibroblasts MRC-5 and BJ cell lines were used. […] Adherent cells were passaged using PBS containing 0.25% trypsin plus 0.01% EDTA (ethylenediamine tetraacetic acid) every 2–3 days.
(§3) The antiproliferative activity of compounds was determined using a standard 3-(4,5-dimethylthiazol-2yl)-5-(3-carboxymethoxyphenyl)-2-(4-sulfophenyl)-2H-tetrazolium (MTS) reduction assay on a robotic high throughput screening platform (HighResBio, Boston, MA, USA) following treatment of cells for 3–7 days. The IC50 values were calculated from the appropriate dose–response curves with Dotmatics software (San Diego, CA, USA).

Data set [1] has as its system promastigotes of Leishmania (V.) braziliensis strain MHOM/CO/87/UA301. Briefly: MTT viability of L. braziliensis promastigotes. The data set is classed as cell-based.
Experimental: Promastigotes of Leishmania (V.) braziliensis strain MHOM/CO/87/UA301 were isolated from footpad lesions in Balb/C mice previously infected. In the process of maintenance and differentiation of the parasites, the LTI medium (tryptose 15 g/L, yeast extract 5 g/L, liver extract 2 g/L, hemin-NaOH 0.02 g/L, glucose 4 g/L, NaCl 9 g/L, KCl 0.4 g/L Na2HPO4, 7.5 g/L at pH 7.4) supplemented with 10% fetal calf serum and maintained at 29 °C was used.
Briefly, 96-well plates were used, where 2 × 10^6 parasites/mL were seeded. A concentration of 50 μM was used for each compound and an incubation time of 96 h at 29 °C. 3-(4,5-dimethylthiazol-2-yl)-2,5-diphenyl tetrazolium bromide (MTT) 1 μg/mL was added and incubated in darkness for 4 h, acidic isopropanol (4N) was added and the plate was read at 570 nm in a spectrophotometer Synergy HT (Biotek). Miltefosine was used as a reference drug. The EC50 calculation of the selected compound was performed using growth curves. Direct counting was used to monitor the proliferation of parasites, three independent experiments were performed for each concentration of the compounds evaluated. The in vitro evaluations of compounds toxicity by MTT in VERO and BMDM cells follow a methodology described above with some modifications [60].
The subject of a further data set is CCRF-CEM. Kind of data set: MTS antiproliferative assay CCRF-CEM. The data set is classed as cell-based. To be noted: Homo sapiens, 72 h of incubation.
Source text: as §1, §2, §3

In another data set the test system is VERO cells. Briefly: MTT cytotoxicity on VERO cells. The data set is classed as cell-based, African green monkey. To be noted: Chlorocebus sabaeus, 72 h. How it is done:
(§4) Vero cells were derived from the kidney of an African green monkey, cells were maintained in Dulbecco’s Modified Eagle’s Medium (DMEM), supplemented with 10% heat-inactivated FBS and penicillin-streptomycin solution 1% at 37 °C, 5% CO2 atmosphere and > 95% humidity. We evaluated through a colorimetric method the effect of compounds 8–23 on the promastigotes of L. brasiliensis. Briefly, 96-well plates were used, where 2 × 10^6 parasites/mL were seeded. A concentration of 50 μM was used for each compound and an incubation time of 96 h at 29 °C. 3-(4,5-dimethylthiazol-2-yl)-2,5-diphenyl tetrazolium bromide (MTT) 1 μg/mL was added and incubated in darkness for 4 h, acidic isopropanol (4N) was added and the plate was read at 570 nm in a spectrophotometer Synergy HT (Biotek). Miltefosine was used as a reference drug. The EC50 calculation of the selected compound was performed using growth curves. Direct counting was used to monitor the proliferation of parasites, three independent experiments were performed for each concentration of the compounds evaluated. The in vitro evaluations of compounds toxicity by MTT in VERO and BMDM cells follow a methodology described above with some modifications. The selectivity index was calculated with SI = CC50/EC50, where CC50 was the maximum concentration range of compounds 10, 21–23 used to evaluate cytotoxicity in VERO and BMDM cells. The trypanocidal activity of compounds 8–23 was evaluated on the viability of T. cruzi epimastigotes through a colorimetric method adapted with minor modifications. 2 × 10^6 parasites/mL were seeded in a 96-well plate, adding 50 μM of each derivative dissolved in DMSO (final concentration remained below 1%). The plate was incubated for 96 h at 29 °C. Then, 1 μg/mL of 3-(4,5-dimethylthiazol-2-yl)-2,5-diphenyl tetrazolium bromide (MTT) was added and incubated in darkness for 4 h. After this time, acidic isopropanol (4N) was added and the plate was read at 570 nm in a spectrophotometer Synergy HT (Biotek). Benznidazole was used as a reference drug. The in vitro evaluations of compounds toxicity by MTT in VERO and BMDM cells follow a methodology described above with some modifications. Cells were counted in suspension and seeded at 20 × 10^3 cells/well. The test was carried out in triplicate on 96-well microplates in different concentrations: 50 μM, 100 μM, 200 μM and 300 μM, untreated cells and reference drug (benznidazole) controls.

Another data set deals with K562-TAX. Kind of data set: MTS antiproliferative assay K562-TAX. The data set is classed as cell-based, human. To be noted: Homo sapiens, K562-Tax, 72 h, 72 h of incubation; paclitaxel-resistant.
Source text: as §1, §2, §3

In a further data set the test system is BJ. Briefly: MTS assay on non-malignant BJ. The class given is cell-based. To be noted: noncancerous human cell line. As to the method: as §2, §3
The test system of another data set is MRC-5. Kind of data set: MTS assay on non-malignant MRC-5. The class given is cell-based. The conditions noted are these: MRC5; noncancerous human cell line. As to the method:
as §2, §3

Data set [2] deals with epimastigotes of Trypanosoma cruzi strain MHOM/VE/92/YBM. Briefly: MTT viability of T. cruzi epimastigotes. The class given is cell-based. The conditions noted are these: for EC50: 72 h, epimastigotes.
The next data set has as its system HCT-116. Kind of data set: MTS antiproliferative assay HCT116. The data set is classed as cell-based. To be noted: Homo sapiens, 72 h of incubation.
Source text: as §1, §2, §3

The next data set has as its system A549. Kind of data set: MTS antiproliferative assay A549. The conditions noted are these: Homo sapiens, A549, 72 h, 72 h of incubation. The class given is cell-based, human.
Source text: as §1, §2, §3

The next data set relates to BMDM macrophages. Kind of data set: MTT cytotoxicity on BMDM macrophages. The class given is cell-based. To be noted: Mus musculus, 72 h.
Source text: as §4, with “T. cruzi epimastigotes MHOM/VE/92/YBM venezuelan strain” for “Vero cells”, “used to test” for “derived from”, “anti T. cruzi in vitro studies. The strain was” for “kidney of an African green monkey, cells were”, “a modified LIT medium” for “Dulbecco’s Modified Eagle’s Medium (DMEM), supplemented”, “fetal bovine serum (FBS). Mouse bone marrow was used to obtain BMDM macrophages. Mouse fibroblast-conditioned medium L-929 was used for the differentiation” for “heat-inactivated FBS”, “maintenance of BMDM macrophages.” for “penicillin-streptomycin solution 1% at 37 °C, 5% CO2 atmosphere and > 95% humidity.”

Another data set has as its system HCT116p53−/−. Kind of data set: MTS antiproliferative assay HCT116p53-/-. The data set is classed as cell-based. To be noted: Homo sapiens; 72 h of incubation.
Source text: as §1, §2, §3

For the next data set, the system named is CEM-DNR. Briefly: MTS antiproliferative assay CEM-DNR. The data set is classed as cell-based. The conditions noted are these: Homo sapiens, 72 h of incubation, daunorubicin-resistant.
Source text: as §1, §2, §3

A further data set concerns K562. Kind of data set: MTS antiproliferative assay K562. The class given is cell-based, human. To be noted: Homo sapiens, K562, 72 h, 72 h of incubation.
Source text: as §1, §2, §3

With `COc1ccc2c(c1)C(=O)/C(=C/c1cccnc1Oc1ccccc1)CC2` [Compound 11, (E)-3,4-Dihydro-7-methoxy-2-[(2-phenoxypyridin-3-yl)methylene]naphthalen-1(2H)-one], the melting point is 136 °C. Besides, the IC50 in the data set on U2OS is above 50 µM. The same compound came in with an EC50 in data set [1] (72 h, promastigotes) of at least 60 µM. In [1] (promastigotes, 72 h), the 50% effective concentration (EC50) is above 60 µM. The compound further displayed an IC50 in the data set with CCRF-CEM of 8.79 ± 0.76 µM. The EC50 with VERO cells was below 100 µM. For the same compound, the IC50 in the data set with K562-TAX was above 50 µM. The same compound showed an IC50 with BJ above 50 µM. The IC50 in the data set on MRC-5 was above 50 µM. In data set [2] (Trypanosoma cruzi), the EC50 is above 60 µM. In the data set with HCT-116, the IC50 is above 50 µM. In the data set with A549, this compound displayed an IC50 above 50 µM. Further, the EC50 in the data set on BMDM macrophages was below 1000 µM. The compound also yielded an IC50 with HCT116p53−/− above 50 µM. In the data set on CEM-DNR, the half-inhibitory concentration (IC50) turned out to be 45.1 ± 7.9 µM. The same compound came in with an IC50 in the data set with K562 above 50 µM.

For the compound `COc1ccc2c(c1)C(=O)/C(=C/c1cccnc1Oc1ccc(Cl)cc1)CC2` [Compound 23, (E)-2-{[2-(4-Chlorophenoxy)pyridin-3-yl]methylene}-3,4-dihydro-7-methoxynaphthalen-1(2H)-one], the melting point came out at 160 °C. In the data set on U2OS, the IC50 was above 50 µM. Besides, in [1] (72 h, promastigotes), it took 5.69 ± 2.65 µM to reach a half-maximal effect (EC50). In data set [1] (SI = CC50/EC50), the “SIB/Lb selectivity index on L. braziliensis/BMDM” value was found to be 176 and the “SIV/Lb selectivity index on L. braziliensis/VERO” value is 18. Besides, the IC50 with CCRF-CEM came to 15.7 ± 1.54 µM. In the data set on VERO cells, the EC50 was found to be 100 ± 16 µM. The same compound yielded an IC50 in the data set on K562-TAX of 16.1 ± 4.44 µM. Moreover, the IC50 with BJ was above 50 µM. The same compound yielded an IC50 with MRC-5 above 50 µM. In [2] (SI = CC50/EC50), the “SIV/Tc selectivity index on T. cruzi/VERO” value is recorded as 20 and the “selectivity index T. cruzi vs BMDM (CC50/EC50)” value is recorded as above 204. The same compound returned an EC50 in data set [2] (Trypanosoma cruzi) of 4.91 ± 0.98 µM. In the data set on HCT-116, this compound came in with a 50% inhibitory concentration (IC50) above 50 µM. The compound also had an IC50 with A549 above 50 µM. The EC50 with BMDM macrophages was above 1000 µM. In the data set with HCT116p53−/−, this compound returned an IC50 above 50 µM. Besides, the IC50 in the data set with CEM-DNR was 23.9 ± 4.98 µM. In addition, in the data set on K562, the IC50 was above 50 µM.

Take `O=C1/C(=C/c2cccnc2Oc2ccc(Cl)cc2)CCc2ccccc21` [Compound 20, (E)-2-{[2-(4-Chlorophenoxy)pyridin-3-yl]methylene}-3,4-dihydronaphthalen-1(2H)-one]: the melting point was found to be 130 °C. Half-maximal inhibition in the data set on U2OS (IC50) required 27.9 ± 4.13 µM. Further, the EC50 in [1] (72 h, promastigotes) was at least 60 µM. In data set [1] (promastigotes, 72 h), this compound had an EC50 above 60 µM. The same compound displayed an IC50 with CCRF-CEM of 6.07 ± 0.63 µM. Also, the concentration for a half-maximal effect (EC50) in the data set on VERO cells was above 1000 µM. Further, in the data set on K562-TAX, the IC50 stood at 32.5 ± 2.93 µM. The IC50 in the data set on BJ is above 50 µM. Besides, in the data set on MRC-5, the IC50 is above 50 µM. In [2] (Trypanosoma cruzi), this compound returned an EC50 below 60 µM. Further, the EC50 in data set [2] came to 57.4 ± 3.6 µM. Further, in the data set on HCT-116, inhibition was half-maximal at 26.2 ± 2.4 µM (IC50). In the data set on A549, this compound registered a half-maximal inhibitory concentration (IC50) of 37 ± 3.98 µM. For the same compound, the concentration for a half-maximal effect (EC50) with BMDM macrophages was above 1000 µM. The compound also displayed an IC50 in the data set on HCT116p53−/− of 25.6 ± 3.77 µM. For the same compound, the concentration for half-maximal inhibition (IC50) with CEM-DNR came out at 28.2 ± 4.83 µM. In the data set with K562, this compound registered an IC50 of 23.6 ± 2.55 µM.

Consider `COc1ccc2c(c1)CC/C(=C\c1cccnc1Oc1ccccc1)C2=O` [Compound 10, (E)-3,4-Dihydro-6-methoxy-2-[(2-phenoxypyridin-3-yl)methylene]naphthalen-1(2H)-one], for which the melting point was 134 °C. The IC50 in the data set on U2OS was above 50 µM. In addition, in [1] (SI = CC50/EC50), the “SIV/Lb selectivity index on L. braziliensis/VERO” value is on record as 4. In the data set with CCRF-CEM, this compound gave an IC50 of 13.2 ± 1.82 µM. Also, the EC50 with VERO cells came to 89 ± 15 µM. The midpoint of inhibition in the data set on K562-TAX, the IC50, lay at 30.1 ± 7.28 µM. The compound also had an IC50 with BJ above 50 µM. The compound also displayed an IC50 in the data set on MRC-5 above 50 µM. Also, the EC50 in data set [2] (Trypanosoma cruzi) is above 60 µM. Moreover, the IC50 with HCT-116 is above 50 µM. This compound showed an IC50 in the data set with A549 above 50 µM. Also, in the data set on BMDM macrophages, the EC50 was below 1000 µM. Moreover, the IC50 in the data set with HCT116p53−/− is above 50 µM. The IC50 with CEM-DNR is 33.7 ± 6.78 µM. Further, the IC50 with K562 stood at 44.6 ± 3.67 µM.

The record behind these values is PMC9457600, “Synthesis, Leishmanicidal, Trypanocidal, Antiproliferative Assay and Apoptotic Induction of (2-Phenoxypyridin-3-yl)naphthalene-1(2H)-one Derivatives” (Molecules, 2022).
